Results on 24 compounds are retold here after patent US10562887B2, “Triazolones and tetrazolones as inhibitors of ROCK” (BRISTOL-MYERS SQUIBB COMPANY, priority 2016, dated 2020).

A word on the IC50: it is the point on the concentration scale where inhibition reaches its midpoint. High values mean weaker potency in that assay, low ones greater potency in that assay.

The structures appear in SMILES notation. Where only a bound is given, the exact number is not on record here.

Chain of ROCK2 (O75116 whole entry, species assumed): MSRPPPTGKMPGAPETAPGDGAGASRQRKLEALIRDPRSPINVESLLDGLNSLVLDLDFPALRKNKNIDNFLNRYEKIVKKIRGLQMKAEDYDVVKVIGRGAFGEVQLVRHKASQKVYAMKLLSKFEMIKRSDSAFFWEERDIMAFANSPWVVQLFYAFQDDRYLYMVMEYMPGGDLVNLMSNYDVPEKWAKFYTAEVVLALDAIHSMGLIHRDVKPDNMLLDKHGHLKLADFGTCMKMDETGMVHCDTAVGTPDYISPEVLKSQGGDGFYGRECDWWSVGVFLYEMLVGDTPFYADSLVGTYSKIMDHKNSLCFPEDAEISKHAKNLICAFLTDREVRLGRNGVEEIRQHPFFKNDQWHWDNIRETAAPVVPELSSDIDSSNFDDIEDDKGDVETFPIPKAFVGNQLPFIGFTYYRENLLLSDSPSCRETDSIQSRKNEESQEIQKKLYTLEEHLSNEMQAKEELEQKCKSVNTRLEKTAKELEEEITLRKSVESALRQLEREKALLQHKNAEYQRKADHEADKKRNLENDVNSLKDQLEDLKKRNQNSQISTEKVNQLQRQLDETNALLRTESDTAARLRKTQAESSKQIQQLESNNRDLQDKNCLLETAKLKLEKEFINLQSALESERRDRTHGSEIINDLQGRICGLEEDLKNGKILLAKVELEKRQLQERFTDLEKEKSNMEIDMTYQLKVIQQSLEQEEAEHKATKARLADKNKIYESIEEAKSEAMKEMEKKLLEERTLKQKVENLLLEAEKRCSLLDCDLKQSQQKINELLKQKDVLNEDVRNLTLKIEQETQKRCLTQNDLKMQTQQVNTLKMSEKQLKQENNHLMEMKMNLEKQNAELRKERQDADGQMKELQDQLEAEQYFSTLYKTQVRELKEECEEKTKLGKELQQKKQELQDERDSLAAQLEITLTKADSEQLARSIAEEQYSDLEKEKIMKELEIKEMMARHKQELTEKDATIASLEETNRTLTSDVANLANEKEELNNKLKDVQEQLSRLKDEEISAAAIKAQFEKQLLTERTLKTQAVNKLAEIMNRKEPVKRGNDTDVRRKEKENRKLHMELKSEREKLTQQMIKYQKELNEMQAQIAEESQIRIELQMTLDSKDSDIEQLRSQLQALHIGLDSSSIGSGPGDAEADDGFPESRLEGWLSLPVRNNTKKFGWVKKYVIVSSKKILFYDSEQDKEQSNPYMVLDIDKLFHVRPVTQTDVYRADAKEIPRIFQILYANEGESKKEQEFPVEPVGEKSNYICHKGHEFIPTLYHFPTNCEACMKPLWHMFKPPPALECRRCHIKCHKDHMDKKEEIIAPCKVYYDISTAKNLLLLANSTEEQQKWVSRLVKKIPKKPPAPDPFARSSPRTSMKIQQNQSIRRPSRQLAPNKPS

The subject of one test is IL-1 beta-induced coronary stenosis.
Assay: not given
Conditions: long term treatment, porcine model; cited from earlier work.
Regarding `O=S(=O)(c1cccc2cnccc12)N1CCCNCC1` [fasudil], the coronary constrictive remodeling entry was “promote a regression” and the coronary stenosis result was “progressively reduce coronary stenosis”.

The next test has as its target ROCK2 (Homo sapiens (Human), UniProt O75116). As to the kind of experiment: ROCK2 assay (peptide phosphorylation, LABCHIP 3000 Reader). It is filed as biochemical. Conditions: 5 μM ATP, 1.5 μM peptide substrate. In outline: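 Human ROCK2 reaction in 20 mM HEPES pH 7.5, 20 mM MgCl2, 0.015% Brij-35, 4 mM DTT, with 5 μM ATP and 1.5 μM FITC-labelled peptide, DMSO <2%. Stopped with EDTA; phosphorylated and unphosphorylated peptide separated by microfluidic mobility shift. IC50 from dose-response curve fit.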
In turn, `Cc1nn(-c2ccc(-c3cn[nH]c3)cc2)c(=O)n1Cc1c(F)cccc1F` [Example 104, 1-(4-(1H-pyrazol-4-yl)phenyl)-4-(2,6-difluorobenzyl)-3-methyl-1H-1,2,4-triazol-5(4H)-one] had an IC50 of 50 to 250 nM.

As to `CC(C)(O)c1nn(-c2ccc(-c3cn[nH]c3)cc2)c(=O)n1Cc1c(F)cccc1F` [Example 138, 1-(4-(1H-pyrazol-4-yl)phenyl)-4-(2,6-difluorobenzyl)-3-(2-hydroxypropan-2-yl)-1H-1,2,4-triazol-5(4H)-one], the IC50 is 50 to 250 nM.

On to `CCc1cc(-n2nc(C)n(Cc3cccc(C#N)c3)c2=O)ccc1-c1cn[nH]c1` [Example 111, 3-((1-(3-ethyl-4-(1H-pyrazol-4-yl)phenyl)-3-methyl-5-oxo-1H-1,2,4-triazol-4(5H)-yl)methyl)benzonitrile], for which the IC50 lay within 250 to 2000 nM.

For the compound `COc1cc(-n2nnn(Cc3cc(F)ccc3F)c2=O)ccc1-c1cn[nH]c1` [Example 181, 1-(2,5-difluorobenzyl)-4-(3-methoxy-4-(1H-pyrazol-4-yl)phenyl)-1H-tetrazol-5(4H)-one], the IC50 was in the range of 50 to 250 nM.

`COc1cc(F)cc(Cn2c(CN3CCC(O)C3)nn(-c3ccc(-c4cn[nH]c4)cc3)c2=O)c1` (centres unmarked) [Example 155, 1-(4-(1H-pyrazol-4-yl)phenyl)-4-(3-fluoro-5-methoxybenzyl)-3-((3-hydroxypyrrolidin-1-yl)methyl)-1H-1,2,4-triazol-5(4H)-one] registered an IC50 of 5 to 50 nM.

For the compound `O=c1n(Cc2ccccc2Cl)cnn1-c1ccc(-c2cn[nH]c2)cc1` [Example 29, 1-(4-(1H-pyrazol-4-yl)phenyl)-4-(2-chlorobenzyl)-1H-1,2,4-triazol-5(4H)-one], the IC50 lay in the range of 5 to 50 nM.

In turn, `COc1cc(-c2cn[nH]c2)ccc1-n1cnn(Cc2ccccc2)c1=O` [Example 10, 1-benzyl-4-(2-methoxy-4-(1H-pyrazol-4-yl)phenyl)-1H-1,2,4-triazol-5(4H)-one] returned a half-maximal inhibitory concentration (IC50) of 250 to 2000 nM.

`COc1cc(-n2nc(C)n(Cc3cccc(C#N)c3)c2=O)ccc1-c1cn[nH]c1` [Example 97, 3-((1-(3-methoxy-4-(1H-pyrazol-4-yl)phenyl)-3-methyl-5-oxo-1H-1,2,4-triazol-4(5H)-yl)methyl)benzonitrile] showed an IC50 of 50 to 250 nM.

Regarding `CCc1cc(-n2nc(C)n(Cc3cc(F)cc(OC)c3)c2=O)ccc1-c1cn[nH]c1` [Example 115, 1-(3-ethyl-4-(1H-pyrazol-4-yl)phenyl)-4-(3-fluoro-5-methoxybenzyl)-3-methyl-1H-1,2,4-triazol-5(4H)-one], the IC50 lay within 5 to 50 nM.

Regarding `N#Cc1cccc(Cn2c(CO)nn(-c3ccc(-c4cn[nH]c4)cc3)c2=O)c1` [Example 132, 3-((1-(4-(1H-pyrazol-4-yl)phenyl)-3-(hydroxymethyl)-5-oxo-1H-1,2,4-triazol-4(5H)-yl)methyl)benzonitrile], the IC50 fell in the range of 50 to 250 nM.

On to `COc1cccc(Cn2c(C)nn(-c3ccc(-c4ncnc5[nH]ccc45)cc3)c2=O)c1` [Example 164, 1-(4-(7H-pyrrolo[2,3-d]pyrimidin-4-yl)phenyl)-4-(3-methoxybenzyl)-3-methyl-1H-1,2,4-triazol-5(4H)-one], for which the IC50 fell in the range of 250 to 2000 nM.

For the compound `COc1cc(-n2nc(C)n(Cc3cc(F)cc(F)c3)c2=O)ccc1-c1cn[nH]c1` [Example 99, 4-(3,5-difluorobenzyl)-1-(3-methoxy-4-(1H-pyrazol-4-yl)phenyl)-3-methyl-1H-1,2,4-triazol-5(4H)-one], the IC50 is 5 to 50 nM.

In turn, `COc1cccc(Cn2c(C)nn(-c3ccc(-c4cn[nH]c4)cc3)c2=O)c1` [Example 80, 1-(4-(1H-pyrazol-4-yl)phenyl)-4-(3-methoxybenzyl)-3-methyl-1H-1,2,4-triazol-5(4H)-one] gave an IC50 of less than 5 nM.

`COc1cc(-n2c(C)nn(CCc3ccccc3)c2=O)ccc1-c1cn[nH]c1` [Example 66, 4-(3-methoxy-4-(1H-pyrazol-4-yl)phenyl)-3-methyl-1-phenethyl-1H-1,2,4-triazol-5(4H)-one] registered an IC50 of 50 to 250 nM.

`O=c1n(Cc2cccc(F)c2)cnn1-c1ccc(-c2cn[nH]c2)cc1` [Example 19, 1-(4-(1H-pyrazol-4-yl)phenyl)-4-(3-fluorobenzyl)-1H-1,2,4-triazol-5(4H)-one]: the IC50 is less than 5 nM.

On to `CCc1cc(-n2nc(C)n(Cc3ccc(F)cc3)c2=O)ccc1-c1cn[nH]c1` [Example 114, 1-(3-ethyl-4-(1H-pyrazol-4-yl)phenyl)-4-(4-fluorobenzyl)-3-methyl-1H-1,2,4-triazol-5(4H)-one], for which the IC50 was in the range of 250 to 2000 nM.

For `CCc1cc(-n2nc(C)n(Cc3c(F)cccc3F)c2=O)ccc1-c1cn[nH]c1` [Example 116, 4-(2,6-difluorobenzyl)-1-(3-ethyl-4-(1H-pyrazol-4-yl)phenyl)-3-methyl-1H-1,2,4-triazol-5(4H)-one], the IC50 fell in the range of 250 to 2000 nM.

In turn, `COc1cc(F)cc(Cn2c(CN3CCOCC3)nn(-c3ccc(-c4cn[nH]c4)cc3)c2=O)c1` [Example 149, 1-(4-(1H-pyrazol-4-yl)phenyl)-4-(3-fluoro-5-methoxybenzyl)-3-(morpholinomethyl)-1H-1,2,4-triazol-5(4H)-one] returned an IC50 of 5 to 50 nM.

As to `CCc1cc(-n2nc(C)n(C(C)c3ccccc3)c2=O)ccc1-c1cn[nH]c1` (centres unmarked) [Example 109, 1-(3-ethyl-4-(1H-pyrazol-4-yl)phenyl)-3-methyl-4-(1-phenylethyl)-1H-1,2,4-triazol-5(4H)-one], the IC50 lay in the range of 250 to 2000 nM.

`Cc1nn(-c2ccc(-c3cn[nH]c3)cc2)c(=O)n1Cc1cccc(F)c1` [Example 81, 1-(4-(1H-pyrazol-4-yl)phenyl)-4-(3-fluorobenzyl)-3-methyl-1H-1,2,4-triazol-5(4H)-one]: the IC50 is 5 to 50 nM.

Consider `COc1cccc(Cn2c(CO)nn(-c3ccc(-c4cn[nH]c4)cc3)c2=O)c1` [Example 125, 1-(4-(1H-pyrazol-4-yl)phenyl)-3-(hydroxymethyl)-4-(3-methoxybenzyl)-1H-1,2,4-triazol-5(4H)-one], for which the IC50 was less than 5 nM.

In the case of `COc1cc(F)cc(Cn2c(CO)nn(-c3ccc(-c4cn[nH]c4)cc3)c2=O)c1` [Example 144, 1-(4-(1H-pyrazol-4-yl)phenyl)-4-(3-fluoro-5-methoxybenzyl)-3-(hydroxymethyl)-1H-1,2,4-triazol-5(4H)-one], the IC50 was less than 5 nM.

The test system of the next test is neointimal formation.
Assay: not given
Conditions: rats; cited from earlier work.
For `C[C@@H](N)[C@H]1CC[C@H](C(=O)Nc2ccncc2)CC1` [Example Y-27632, Y-27632], the neointimal formation entry is on record as “inhibited neointimal formation”.

Another test relates to spontaneously hypertensive rat, renal hypertensive rat and deoxycortisone acetate salt hypertensive rat models.
Assay: not given
Conditions: control rats; cited from earlier work.
For `C[C@@H](N)[C@H]1CC[C@H](C(=O)Nc2ccncc2)CC1` [Example Y-27632, Y-27632], the blood pressure result is listed as “only a minor effect”.

The same test, now with this note: three rat models of hypertension; cited from earlier work.
With `C[C@@H](N)[C@H]1CC[C@H](C(=O)Nc2ccncc2)CC1` [Example Y-27632, Y-27632], the blood pressure entry is “significantly decrease blood pressure”.

The next test has as its system rat stroke model.
Assay: not given
Conditions: cited from earlier work.
On to `O=S(=O)(c1cccc2cnccc12)N1CCCNCC1` [fasudil], for which the “infarct size and neurologic deficit” value was “reduce both the infarct size and neurologic deficit”.

The next test deals with congestive heart failure in Dahl salt-sensitive rats.
Assay: not given
Conditions: cited from earlier work.
Consider `C[C@@H](N)[C@H]1CC[C@H](C(=O)Nc2ccncc2)CC1` [Example Y-27632, Y-27632], for which the “ventricular hypertrophy, fibrosis and function” value is on record as “improve”.
